In one assay the target is T1, GSK3A (Homo sapiens, UniProt P49840).
T1 construct: expressed in transfected cells
Briefly: NanoBRET cellular target engagement assay, Nanoluc-GSK3A in HEK293 cells. Format: cell-based. The conditions noted are these: NanoBRET GSK3α IC50, HEK293 cells, tracer K-8, 2 hours, 37° C.

In assay [1] the target is T2, GSK3B (Homo sapiens, UniProt P49841). Kind of assay: In vitro enzymatic activity assay, GSK3β. Format: biochemical. Set-up: Full length human GSK3α or GSK3B expressed as N-terminal GST fusion proteins; GST (N); purchased Carna Biosciences (Japan); host or cells: baculovirus host. The following applies: 1.0 mM ATP, 1.0 μM peptide substrate, 120 min, 25° C, read-out: Enzyme GSK3β (IC50).
T2 sequence (P49841 whole entry, the tested form may be a part): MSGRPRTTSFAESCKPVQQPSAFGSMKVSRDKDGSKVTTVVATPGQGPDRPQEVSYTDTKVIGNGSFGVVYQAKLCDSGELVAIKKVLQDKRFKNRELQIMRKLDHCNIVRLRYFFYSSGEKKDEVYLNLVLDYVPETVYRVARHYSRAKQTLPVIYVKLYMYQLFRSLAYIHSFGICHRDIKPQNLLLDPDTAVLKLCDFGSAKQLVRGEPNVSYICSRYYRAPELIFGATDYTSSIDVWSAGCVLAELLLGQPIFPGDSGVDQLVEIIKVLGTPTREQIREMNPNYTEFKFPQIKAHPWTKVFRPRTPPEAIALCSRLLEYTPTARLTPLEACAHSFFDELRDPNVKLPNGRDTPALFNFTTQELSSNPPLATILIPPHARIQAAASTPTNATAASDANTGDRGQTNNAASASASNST

The next assay concerns the target T3, human GSK3α (Homo sapiens, UniProt P49840).
T3 construct: Full length human GSK3α or GSK3B expressed as N-terminal GST fusion proteins; GST (N); purchased Carna Biosciences (Japan); host or cells: baculovirus host
Kind of assay: In vitro enzymatic activity assay, GSK3α. Format: biochemical. The conditions noted are these: 1.0 mM ATP, 1.0 μM peptide substrate, 120 min, 25° C, read-out: Enzyme GSK3α (IC50).

The target in assay [2] is T2, GSK3B. Kind of assay: NanoBRET cellular target engagement assay, Nanoluc-GSK3B in HEK293 cells. Format: cell-based. Also on record: expressed in transfected cells. The conditions noted are these: NanoBRET GSK3β IC50, HEK293 cells, tracer K-8, 2 hours, 37° C. (BRET reads energy transfer from a luciferase to a nearby fluorophore.)

Usually IC50 stands for the concentration that gives 50% inhibition.

T3 sequence (P49840 whole entry, the tested form may be a part): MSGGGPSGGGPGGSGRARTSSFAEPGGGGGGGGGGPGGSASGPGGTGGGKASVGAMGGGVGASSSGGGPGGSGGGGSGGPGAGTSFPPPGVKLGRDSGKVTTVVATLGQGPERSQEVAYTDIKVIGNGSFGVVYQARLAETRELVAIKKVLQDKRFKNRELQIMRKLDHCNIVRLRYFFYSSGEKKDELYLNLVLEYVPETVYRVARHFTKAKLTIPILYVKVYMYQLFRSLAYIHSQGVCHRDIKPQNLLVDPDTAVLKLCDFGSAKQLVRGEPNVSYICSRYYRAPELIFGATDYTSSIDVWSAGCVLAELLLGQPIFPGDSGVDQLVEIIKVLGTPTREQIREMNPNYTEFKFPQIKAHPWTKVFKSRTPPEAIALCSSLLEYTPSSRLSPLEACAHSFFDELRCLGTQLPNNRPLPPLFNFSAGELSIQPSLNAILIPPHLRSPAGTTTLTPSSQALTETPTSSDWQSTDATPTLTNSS
T1 sequence (P49840 whole entry): as the sequence (P49840 whole entry, the tested form may be a part) above

With `COCc1cc(C)c(-n2cnc(N)c(C(=O)Nc3cncc(C4CNC(=O)CN4)c3)c2=O)c(C)c1` (single isomer, unassigned) [Example 159, (R)-4-amino-1-(4-(methoxymethyl)-2,6-dimethylphenyl)-6-oxo-N-(5-(5-oxopiperazin-2-yl)pyridin-3-yl)-1,6-dihydropyrimidine-5-carboxamide or (S)-4-amino-1-(4-(methoxymethyl)-2,6-dimethylphenyl)-6-oxo-N-(5-(5-oxopiperazin-2-yl)pyridin-3-yl)-1,6-dihydropyrimidine-5-carboxamide], the half-inhibitory concentration (IC50) against GSK3A was 76.9 nM; on GSK3B [1] it was 2080 nM; on human GSK3α, 90.6 nM; at GSK3B [2] it was 5790 nM.
The like results for `COCc1cc(C)c(-n2cnc(N)c(C(=O)Nc3cncc(C4CNC(=O)CN4)c3)c2=O)c(C)c1` (single isomer, unassigned) [Example 160, (R)-4-amino-1-(4-(methoxymethyl)-2,6-dimethylphenyl)-6-oxo-N-(5-(5-oxopiperazin-2-yl)pyridin-3-yl)-1,6-dihydropyrimidine-5-carboxamide or (S)-4-amino-1-(4-(methoxymethyl)-2,6-dimethylphenyl)-6-oxo-N-(5-(5-oxopiperazin-2-yl)pyridin-3-yl)-1,6-dihydropyrimidine-5-carboxamide] were, in that order, 197 nM, 2320 nM, 161 nM and 11300 nM.
The like results for `COc1ccccc1-n1cnc(N)c(C(=O)Nc2cccc(C3CCCN3)c2N2CCOCC2)c1=O` (single isomer, unassigned) [Example 166, (S)-4-amino-1-(2-methoxyphenyl)-N-(2-morpholino-3-(pyrrolidin-2-yl)phenyl)-6-oxo-1,6-dihydropyrimidine-5-carboxamide or (R)-4-amino-1-(2-methoxyphenyl)-N-(2-morpholino-3-(pyrrolidin-2-yl)phenyl)-6-oxo-1,6-dihydropyrimidine-5-carboxamide] were, in that order, 177 nM, 9380 nM, 285 nM and 16100 nM.
For `Nc1ncn(-c2c(Cl)cccc2Cl)c(=O)c1C(=O)Nc1cccc(C2CCCN2)c1F` (single isomer, unassigned) [Example 167, (S)-4-amino-1-(2,6-dichlorophenyl)-N-(2-fluoro-3-(pyrrolidin-2-yl)phenyl)-6-oxo-1,6-dihydropyrimidine-5-carboxamide or (R)-4-amino-1-(2,6-dichlorophenyl)-N-(2-fluoro-3-(pyrrolidin-2-yl)phenyl)-6-oxo-1,6-dihydropyrimidine-5-carboxamide] the same measures were 27.2 nM, 1810 nM, 45.4 nM and 1860 nM.
Consider `Nc1ncn(-c2c(Cl)cccc2Cl)c(=O)c1C(=O)Nc1cccc(C2CCCN2)c1F` (single isomer, unassigned) [Example 168, (S)-4-amino-1-(2,6-dichlorophenyl)-N-(2-fluoro-3-(pyrrolidin-2-yl)phenyl)-6-oxo-1,6-dihydropyrimidine-5-carboxamide or (R)-4-amino-1-(2,6-dichlorophenyl)-N-(2-fluoro-3-(pyrrolidin-2-yl)phenyl)-6-oxo-1,6-dihydropyrimidine-5-carboxamide], for which the IC50 at GSK3A came to 27.1 nM; on GSK3B [1], 1530 nM; on human GSK3α it was 49.3 nM; against GSK3B [2], 1470 nM.
Consider `COc1c(NC(=O)c2c(N)ncn(-c3c(Cl)cccc3Cl)c2=O)cccc1C1CCCN1` (single isomer, unassigned) [Example 169, (R)-4-amino-1-(2,6-dichlorophenyl)-N-(2-methoxy-3-(pyrrolidin-2-yl)phenyl)-6-oxo-1,6-dihydropyrimidine-5-carboxamide or (S)-4-amino-1-(2,6-dichlorophenyl)-N-(2-methoxy-3-(pyrrolidin-2-yl)phenyl)-6-oxo-1,6-dihydropyrimidine-5-carboxamide], for which the concentration for half-maximal inhibition (IC50) on GSK3A came to 2 nM; on GSK3B [1] it was 105 nM; on human GSK3α it was 4.2 nM; against GSK3B [2], 103 nM.
The like results for `COc1cc(Cl)c(-n2cnc(N)c(C(=O)Nc3cnnc(C4CCCCN4)c3)c2=O)c(Cl)c1` (single isomer, unassigned) [Example 172, (R)-4-amino-1-(2,6-dichloro-4-methoxyphenyl)-6-oxo-N-(6-(piperidin-2-yl)pyridazin-4-yl)-1,6-dihydropyrimidine-5-carboxamide or (S)-4-amino-1-(2,6-dichloro-4-methoxyphenyl)-6-oxo-N-(6-(piperidin-2-yl)pyridazin-4-yl)-1,6-dihydropyrimidine-5-carboxamide] were, in that order, 3.5 nM, 260 nM, 6.3 nM and 98.8 nM.
The like results for `CO[C@H](C)c1cc(C)c(-n2cnc(N)c(C(=O)Nc3cncc([C@@H](C)N)c3)c2=O)c(C)c1` (single isomer, unassigned) [Example 174] were, in that order, 8.7 nM, 705 nM, 28 nM and 560 nM.
For `CO[C@H](C)c1cc(C)c(-n2cnc(N)c(C(=O)Nc3cncc([C@@H](C)N)c3)c2=O)c(C)c1` (single isomer, unassigned) [Example 175] the same measures were 8.1 nM, 803 nM, 32.6 nM and 581 nM.
Consider `CCOC[C@@H](N)c1cncc(NC(=O)c2c(N)ncn(-c3c(C)cc(COC)cc3C)c2=O)c1` (single isomer, unassigned) [Example 177, (S)-4-amino-N-(5-(1-amino-2-ethoxyethyl)pyridin-3-yl)-1-(4-(methoxymethyl)-2,6-dimethylphenyl)-6-oxo-1,6-dihydropyrimidine-5-carboxamide or (R)-4-amino-N-(5-(1-amino-2-ethoxyethyl)pyridin-3-yl)-1-(4-(methoxymethyl)-2,6-dimethylphenyl)-6-oxo-1,6-dihydropyrimidine-5-carboxamide], for which the IC50 against GSK3A was determined as 2.8 nM; on GSK3B [1], 200 nM; on human GSK3α, 4 nM; against GSK3B [2], 283 nM.
For `CC1CCC(c2cccc(NC(=O)c3c(N)ncn(-c4c(Cl)cccc4Cl)c3=O)c2)N1` (single isomer, unassigned) [Example 180, 4-amino-1-(2,6-dichlorophenyl)-N-(3-((2R,5R)-5-methylpyrrolidin-2-yl)phenyl)-6-oxo-1,6-dihydropyrimidine-5-carboxamide or 4-amino-1-(2,6-dichlorophenyl)-N-(3-((2S,5S)-5-methylpyrrolidin-2-yl)phenyl)-6-oxo-1,6-dihydropyrimidine-5-carboxamide] the same measures were 4.7 nM, 298 nM, 6.4 nM and 322 nM.
The like results for `Cc1cc([C@@H](C)F)cc(C)c1-n1cnc(N)c(C(=O)Nc2cncc([C@H]3CCCCN3)c2)c1=O` (single isomer, unassigned) [Example 184, 4-amino-1-(4-((R)-1-fluoroethyl)-2,6-dimethylphenyl)-6-oxo-N-(5-((R)-piperidin-2-yl)pyridin-3-yl)-1,6-dihydropyrimidine-5-carboxamide or 4-amino-1-(4-((S)-1-fluoroethyl)-2,6-dimethylphenyl)-6-oxo-N-(5-((R)-piperidin-2-yl)pyridin-3-yl)-1,6-dihydropyrimidine-5-carboxamide] were, in that order, 2.1 nM, 175 nM, 3.9 nM and 167 nM.
For `Cc1cc([C@@H](C)F)cc(C)c1-n1cnc(N)c(C(=O)Nc2cncc([C@H]3CCCCN3)c2)c1=O` (single isomer, unassigned) [Example 185, 4-amino-1-(4-((R)-1-fluoroethyl)-2,6-dimethylphenyl)-6-oxo-N-(5-((R)-piperidin-2-yl)pyridin-3-yl)-1,6-dihydropyrimidine-5-carboxamide or 4-amino-1-(4-((S)-1-fluoroethyl)-2,6-dimethylphenyl)-6-oxo-N-(5-((R)-piperidin-2-yl)pyridin-3-yl)-1,6-dihydropyrimidine-5-carboxamide] the same measures were 1.6 nM, 148 nM, 3.5 nM and 128 nM.
For the compound `COc1cc(Cl)c(-n2cnc(N)c(C(=O)Nc3cncc([C@]4(N)CCCOC4)c3)c2=O)c(Cl)c1` (single isomer, unassigned) [Example 187, (R)-4-amino-N-(5-(3-aminotetrahydro-2H-pyran-3-yl)pyridin-3-yl)-1-(2,6-dichloro-4-methoxyphenyl)-6-oxo-1,6-dihydropyrimidine-5-carboxamide or (S)-4-amino-N-(5-(3-aminotetrahydro-2H-pyran-3-yl)pyridin-3-yl)-1-(2,6-dichloro-4-methoxyphenyl)-6-oxo-1,6-dihydropyrimidine-5-carboxamide], the half-maximal inhibitory concentration (IC50) at GSK3A is 5.6 nM; at GSK3B [1], 357 nM; at human GSK3α it was 8.4 nM; against GSK3B [2] it was 421 nM.

The record behind these values is patent US20260327191A1, “GSK3a INHIBITORS AND METHODS OF USE THEREOF” (Blueprint Medicines Corporation, priority 2023, published 2026).
